Data taken from patent US10441630B2, “Topical formulations and uses thereof” (OCULAR TECHNOLOGIES SARL, priority 2012, dated 2019).

Columns and labels:
[1] = Mixed nanomicellar size and polydispersity index (Zetasizer) of compound 1001 MNF; format: physicochemical; details: HCO-60 4 wt %, Octoxynol-40 0.01 wt %
Experimental: The formulation size and polydispersity index were determined with Zetasizer, Malvern Instruments, NJ. In brief, approximately 1 ml of each formulation was transferred to a cuvette and placed in the instrument. A laser beam of light was used to determine the mixed nanomicellar size.
Mixed nanomicellar formulation encapsulating compound 1001 was prepared by solvent evaporation method in two steps: 1) Preparation of basic formulation and 2) rehydration. In step one, compound 1001, HCO-60 and octoxynol-40 were dissolved separately in 0.3 mL of ethyl acetate. These three solutions were mixed together in 15-mL centrifuge tube. The resultant mixture was vortexed to obtain a homogenous solution. Ethyl acetate solvent was removed with speed vacuum to obtain a solid thin film. The residue was kept overnight under high vacuum at room temperature to remove residual organic solvent. In step two, the resultant thin film was hydrated with 1 mL of double distilled deionized water by vortexing the solution. The rehydrated formulation was suspended in 2× phosphate buffer solution, (pH 6.5). It was filtered through 0.2 μm nylon filter membrane to remove the unentrapped drug aggregates and other foreign particulates. The entrapment of compound 1001 was determined by RP-HPLC following disruption of the micelles and solubilization of 1001 in the diluent (2-propanol) as described below
Weight percent of drug loaded into MNF was determined following the method for entrapment efficiency. Size and polydispersity index of the formulations was determined with Malvern zetasizer as described above. The formulations appear clear and have small size and narrow size distribution.

[2] = Physical appearance, melt method, HCO-40 and compound 1001; format: physicochemical; details: 1001 4 wt %
Experimental: The preparation of MNF encapsulating compound 1001 (neat oil) can be divided into two steps. […] […] To this melt polymer compound 1001 (˜20 mg), thermostated at 40° C., was added and mixed for homogenous distribution. […] (in refrigerator).
This aqueous solution was allowed to reach room temperature, under natural conditions. The pH of the solution was adjusted to 5.5 and the volume was made up with 2× phosphate buffer saline (pH 5.5) containing octoxynol-40 (0.01 wt %) and PVP-K-90 (1.2 wt %). The formulation was filtered through 0.2 μm nylon filter to remove any foreign material and obtain a clear homogenous aqueous RX-1001 formulation.
The results obtained for physical appearance of the mixture, different phases, at different temperatures and appearance of final formulation are summarized in Tables 3a-3c.

[3] = Ocular tissue distribution of compound 1001 and RX-10008 by LC-MS/MS; format: in vivo, rabbit
Experimental: A study was conducted in rabbits to test the tolerance and ocular tissue distribution of two nanomicellar formulations of compound 1001 (RX10045) against matching placebos (Table 7a and 7b) and balanced saline solution (BSS). Healthy New Zealand female white rabbits (2-3 kg) were used for this study. One drop (approximately 35 μL) of study drug was applied o.d. 4×/day at two hour intervals for 5 days. One drop of BSS was applied to the contralateral eye.
Selected ocular fluids/tissues (aqueous humor, vitreous humor, conjunctiva, cornea, iris-ciliary body, lens, retina/choroid, and sclera) collected from two rabbits each in the RX-10045 (0.15% in HCO-60, 0.1% in HCO-40) treatment groups, and from one rabbit in each of the matching placebo groups, were assayed for compound 1001 and another resolvin by liquid chromatography-tandem mass spectrometry (LC-MS/MS). Warfarin-d5 and 5-HDA were used as internal standards for the analysis of RX-10045 and its active metabolite, RX-10008, respectively, in aqueous humor and vitreous humor. For the other ocular tissues (solid tissues), warfarin-d5 and phenyl acetic acid-d5 (PAA-d5) were used as the internal standards for compound 1001 and RX-10008, respectively. The analytical range for the solid tissues were 0.125-100 ng. The results of the solid tissue analyses were converted to ng/g by correcting for the amount of tissue analyzed.

[4] = 1001 initially added 0.035 wt %
[5] = 1001 initially added 0.070 wt %
[6] = 1001 initially added 0.095 wt %
[7] = 1001 initially added 0.120 wt %
[8] = 1001 initially added 0.250 wt %
[9] = 1001 initially added 0.300 wt %
[10] = 1001 initially added 0.400 wt %
[11] = rabbits, RX-10045 formulations 4×/day for 5 days

Final formulation ([2]; HCO-40 0.5 wt %): Emulsion
Mixture physical appearance at room temperature (25° C.) ([2]; HCO-40 0.5 wt %): Viscous yellow liquid
Resuspend in water ([2]; HCO-40 0.5 wt %): Emulsion
Final formulation ([2]; HCO-40 0.75 wt %): Emulsion
Mixture physical appearance at room temperature (25° C.) ([2]; HCO-40 0.75 wt %): Viscous yellow liquid
Resuspend in water ([2]; HCO-40 0.75 wt %): Emulsion
Final formulation ([2]; HCO-40 1.0 wt %): Emulsion
Mixture physical appearance at room temperature (25° C.) ([2]; HCO-40 1.0 wt %): Viscous yellow liquid
Resuspend in water ([2]; HCO-40 1.0 wt %): Emulsion
Final formulation ([2]; HCO-40 1.25 wt %): Emulsion
Mixture physical appearance at room temperature (25° C.) ([2]; HCO-40 1.25 wt %): Viscous yellow liquid
Resuspend in water ([2]; HCO-40 1.25 wt %): Emulsion
Final formulation ([2]; HCO-40 1.5 wt %): Emulsion
Mixture physical appearance at room temperature (25° C.) ([2]; HCO-40 1.5 wt %): Viscous yellow liquid
Resuspend in water ([2]; HCO-40 1.5 wt %): Emulsion
Final formulation ([2]; HCO-40 1.75 wt %): Emulsion
Mixture physical appearance at room temperature (25° C.) ([2]; HCO-40 1.75 wt %): Viscous yellow liquid
Resuspend in water ([2]; HCO-40 1.75 wt %): Emulsion
Final formulation ([2]; HCO-40 2.0 wt %): Emulsion
Mixture physical appearance at room temperature (25° C.) ([2]; HCO-40 2.0 wt %): Viscous yellow liquid
Resuspend in water ([2]; HCO-40 2.0 wt %): Emulsion
Final formulation ([2]; HCO-40 2.25 wt %): Emulsion
Mixture physical appearance at room temperature (25° C.) ([2]; HCO-40 2.25 wt %): Viscous yellow liquid
Resuspend in water ([2]; HCO-40 2.25 wt %): Emulsion
Final formulation ([2]; HCO-40 2.5 wt %): Yellow color
Mixture physical appearance at room temperature (25° C.) ([2]; HCO-40 2.5 wt %): Viscous yellow liquid
Resuspend in water ([2]; HCO-40 2.5 wt %): Yellow
Final formulation ([2]; HCO-40 2.75 wt %): Pale yellow
Mixture physical appearance at room temperature (25° C.) ([2]; HCO-40 2.75 wt %): Viscous yellow liquid
Resuspend in water ([2]; HCO-40 2.75 wt %): Pale
Final formulation ([2]; HCO-40 3.0 wt %): Clear solution
Mixture physical appearance at room temperature (25° C.) ([2]; HCO-40 3.0 wt %): Viscous yellow liquid
Resuspend in water ([2]; HCO-40 3.0 wt %): Clear
Final formulation ([2]; HCO-40 4.0 wt %): Clear solution
Mixture physical appearance at room temperature (25° C.) ([2]; HCO-40 4.0 wt %): Viscous yellow liquid
Resuspend in water ([2]; HCO-40 4.0 wt %): Clear
hydrolysis to active metabolite RX-10008 ([3]; rabbit ocular tissues): rapidly hydrolyzed
concentrations of the compound 1001 ester prodrug in the sclera and conjunctiva [3, 11]: sporadic, relatively low
Structure (SMILES): C#CC[C@@H](O)/C=C/C=C/C#C[C@@H](O)CCCC(=O)OC(C)C [compound 1001]
Mixed nanomicellar size (nm) [1, 4]: 24.90 nm
Polydispersity Index [1, 4]: 0.442
Mixed nanomicellar size (nm) [1, 5]: 25.01 nm
Polydispersity Index [1, 5]: 0.414
Mixed nanomicellar size (nm) [1, 6]: 24.79 nm
Polydispersity Index [1, 6]: 0.415
Mixed nanomicellar size (nm) [1, 7]: 18.28 nm
Polydispersity Index [1, 7]: 0.320
Mixed nanomicellar size (nm) [1, 8]: 18.37 nm
Polydispersity Index [1, 8]: 0.331
Mixed nanomicellar size (nm) [1, 9]: 18.29 nm
Polydispersity Index [1, 9]: 0.345
Mixed nanomicellar size (nm) [1, 10]: 18.2 nm
Polydispersity Index [1, 10]: 0.333
compound 1001 in the majority of ocular tissues [3, 11]: either not detected or was below the quantitation limit
